Data published in US4600715A, “Benzodiazepine antagonistic β-carboline derivatives and compositions thereof” (Shering Aktiengesellschaft, priority 1983, dated 1986).
In brackets after ≈: the same amount, converted by molar mass. Read-outs that look alike come from different tables or passages of the source.

Key:
benzodiazepine receptors [1] = assay: in vitro displacement of specific ^3 H flunitrazepam binding, cerebral membrane suspension; conditions: ^3 H flunitrazepam 1.0 nM, 0° C.; rat cerebrum, pH 7.1; concentration effecting 50% displacement of specific binding
benzodiazepine receptors [2] = conditions: comparison compound marked *Nature 294: 472 (1981); ^3 H flunitrazepam 1.0 nM, 0° C.; cited from earlier work

IC50 (in vitro), displacement activity (benzodiazepine receptors [1])	Structure (SMILES)	IC50 (in vitro), displacement activity (benzodiazepine receptors [2])
0.6 ng/mL (≈ 1.71 nM)	CCOC(=O)c1cc2c(cn1)[nH]c1ccc(C(=O)N3CCCCC3)cc12 [CO2 Et, H, drawing 10, 6-piperidinocarbonyl-β-carboline-3-carboxylic acid ethyl ester]	–
0.4 ng/mL (≈ 1.06 nM)	C=CCN(CC=C)C(=O)c1ccc2[nH]c3cnc(C(=O)OCC)c(C)c3c2c1 [CO2 Et, CH3, CON(Allyl)2, 6-N,N-diallylcarbamoyl-4-methyl-β-carboline-3-carboxylic acid ethyl ester]	–
0.6 ng/mL (≈ 1.6 nM)	CCc1noc(-c2cc3c(cn2)[nH]c2ccc(C(=O)N4CCCCC4)cc23)n1 [drawing 11, H, drawing 12, 3-(5'-[3'-ethyl-1',2',4'-oxadiazol]yl)-β-carboline-6-carboxylic acid piperidide]	–
0.5 ng/mL (≈ 1.47 nM)	CCCOC(=O)c1ccc2[nH]c3cnc(C(=O)OCC)c(C)c3c2c1 [CO2 Et, Me, COOC3 H7, 6-propoxycarbonyl-4-methyl-β-carboline-3-carboxylic acid ethyl ester]	–
1.3 ng/mL (≈ 3.66 nM)	CCOC(=O)c1ncc2[nH]c3ccc(C(=O)N(C)C)cc3c2c1COC [CO2 Et, CH2 OCH3, CON(CH3)2, 6-N,N-dimethylcarbamoyl-4-methoxymethyl-β-carboline-3-carboxylic acid ethyl ester]	–
–	COC(=O)c1cc2c(cn1)[nH]c1ccccc12 [CO2 Me, H, H]	1.9 ng/mL (≈ 8.4 nM)
